From patent US11325921B2, “Optically active crosslinked cyclic secondary amine derivative” (Sumitomo Dainippon Pharma Co., Ltd., priority 2018, dated 2022)
Read-outs that look alike come from different tables or passages of the source.

Legend:
[1] = test system: MEIS1 mRNA in MV4; 11 cells; assay: Test 3: inhibition of mRNA transcription, MEIS1; assay type: cell-based; details: for mRNA transcription inhibition activity (in words): MEIS1 and HOXA9, MV4, 1 μM, summary of the table; for mrna remaining at 1 µM: Homo sapiens, read-out: mRNA at 1 μM (% control) MEIS1
Protocol: (§1) MV4; 11 cells were obtained from American Type Culture Collection (ATCC). The cells were cultured at 37° C. in the presence of 5% CO2 in RPMI 1640 medium containing 10% fetal bovine serum and 1% penicillin/streptomycin. To the MV4; 11 cells was added each test compound to adjust the final concentration to 1 μmol/L, and the cells were cultured at 37° C. in the presence of 5% CO2 for 20 to 24 hours. After the incubation, the total RNA was extracted from the cells with RNeasy™ Mini Kit (QIAGEN, 74106), and cDNA was synthesized with Superscript™ VILO™ cDNA Synthesis Kit (Invitrogen, #11754250). By using TaqMan™ Gene Expression Master Mix (Applied Biosystems, 4369016) and TaqMan™ probe (Applied Biosystems), the expression level of mRNA was quantified from the obtained cDNA with 7900HT (Applied biosystems). The mRNA expression level of each obtained gene was fitted with the expression level of mRNA of GAPDH.

[2] = test system: MOLM-13 cells; assay: Test 2: inhibition of cell proliferation, MOLM-13; assay type: cell-based; details: cultured 7 days, PrestoBlue
Protocol: (§2) RS4; 11 cells were obtained from American Type Culture Collection (ATCC). The cells were cultured at 37° C. in the presence of 5% CO2 in RPMI 1640 medium containing 10% fetal bovine serum and 1% penicillin/streptomycin. MOLM-13 cells were separately obtained from DSMZ. The cells were cultured at 37° C. in the presence of 5% CO2 in RPMI 1640 medium containing 20% fetal bovine serum and 1% penicillin/streptomycin.
(§3) The cells were plated to a 96-well plate in 2000 cells/well, each test compound was added thereto to adjust the final concentration of DMSO to 0.1% of DMSO, and the cells were cultured for 7 days. After the cultivation, the cell viability was calculated with PrestoBlue™ Cell Viability Reagent (Invitrogen, A13261). The IC50 value was calculated from a survival curve, that corresponds to the concentration of the test compound at which the cell proliferation inhibition rate is 50%.

[3] = test system: HOXA9 mRNA in MV4; 11 cells; assay: Test 3: inhibition of mRNA transcription, HOXA9; assay type: cell-based; details: 20 to 24 hours, fitted with GAPDH; for mrna remaining at 1 µM: Homo sapiens, read-out: mRNA at 1 μM (% control) HOXA9
Protocol: as §1

[4] = test system: RS4; 11 cells; assay: Test 2: inhibition of cell proliferation, RS4; 11; assay type: cell-based; details: for cell proliferation inhibition activity (in words, good) / cell proliferation inhibitory activity (in words, potent): 11 and MOLM-13 cells, summary of the table; for cell proliferation inhibitory activity (in words, potent): 'especially'; for IC50: 11 cells, cultured 7 days, PrestoBlue
Protocol: as §2, §3

[5] = Test 4: pharmacokinetic study; assay type: in vivo; details: male SD rat, oral, 10 mg/kg; for AUC(0-t): plasma, 24 hours; for compound-exposure in plasma (in words): summary of the table
Protocol: The test compound suspended in 0.5% methylcellulose was orally administered to 7-week-old male SD rat in a dose of 10 mg/kg. The blood sample was taken from jugular vein without anesthesia over time for 24 hours. The blood sample was centrifuged to obtain plasma. The plasma was pre-treated by methanol extraction method, and then analyzed with an LC-MS/MS to determine the concentration of the test compound. Based on the data from 0 hour after the administration until the time (t) when there was the final detection in the plasma, AUC was calculated by trapezoidal method.

[6] = target: Menin-MLL binding (His-Menin1-615 / MLL1-172-FLAG) (Homo sapiens (Human), UniProt O00255); assay: Test 1: inhibition of the Menin-MLL binding (HTRF); details: for Menin-MLL binding inhibition activity (in words): summary of the table
Protocol: Menin1-615 wherein 6× His tag and HA tag are inserted in the N-terminus, and myc tag is inserted in the C-terminus (hereinafter, referred to as His-Menin1-615), was diluted with an assay buffer (25 mmol/L HEPES, 150 mmol/L NaCl, 1 mmol/L dithiothreitol, 0.5% (w/v) Tween 80, 0.3% (w/v) BSA, 0.3% (w/v) skim milk) to adjust the final concentration Lo 30 nmol/L. The test compounds were also diluted with the assay buffer to adjust each concentration of the test compounds to 0.005 to 5 μmol/L. The prepared His-Menin1-615 and test compounds were added to a light-shielding 384-well low-volume plate (Corning, #4514) in 2 μL/well and 6 μL/well, respectively, and the plate was covered with a lid for light-shielding (Corning, r-3935), and incubated at room temperature for 3 hours. After the incubation, MLL1-172 wherein FLAG tag is inserted in the C-terminus (MLL1-172-FLAG), was separately diluted with the assay buffer to adjust the final concentration to 50 nmol/L. The prepared MLL1-172-FLAG was added to the above plate in 2 μL/well, and the plate was covered with a lid for light-shielding and incubated at room temperature for an hour.
Then, anti-6HIS-d2 antibody (cisbio, 61HISDLA) and anti-FLAGM2-K antibody (cisbio, 61FG2KLA) were diluted with an antibody dilution buffer (50 mmol/L Tris, 150 mmol/L NaCl, 800 mmol/L KF, pH 7.4) to adjust the final concentration to 1.4 μg/mL to prepare an antibody mixture. The prepared antibody mixture was added to the above plate in 10 μL/well, and the plate was covered with a lid and incubated at 4° C. for 17 to 24 hours. After the incubation, the signal was detected with RUBYstar (BMG LABTECH). The binding inhibition rate (%) at each concentration of the test compounds was calculated from the following formula, and the IC50 value was obtained, that corresponds to the concentration of the test compound at which the binding inhibition rate is 50%.

[7] = MV4, 20 to 24 hours, fitted with GAPDH

Menin-MLL binding (His-Menin1-615 / MLL1-172-FLAG), sequence (O00255 other isoform, or with tags, fused parts or gaps): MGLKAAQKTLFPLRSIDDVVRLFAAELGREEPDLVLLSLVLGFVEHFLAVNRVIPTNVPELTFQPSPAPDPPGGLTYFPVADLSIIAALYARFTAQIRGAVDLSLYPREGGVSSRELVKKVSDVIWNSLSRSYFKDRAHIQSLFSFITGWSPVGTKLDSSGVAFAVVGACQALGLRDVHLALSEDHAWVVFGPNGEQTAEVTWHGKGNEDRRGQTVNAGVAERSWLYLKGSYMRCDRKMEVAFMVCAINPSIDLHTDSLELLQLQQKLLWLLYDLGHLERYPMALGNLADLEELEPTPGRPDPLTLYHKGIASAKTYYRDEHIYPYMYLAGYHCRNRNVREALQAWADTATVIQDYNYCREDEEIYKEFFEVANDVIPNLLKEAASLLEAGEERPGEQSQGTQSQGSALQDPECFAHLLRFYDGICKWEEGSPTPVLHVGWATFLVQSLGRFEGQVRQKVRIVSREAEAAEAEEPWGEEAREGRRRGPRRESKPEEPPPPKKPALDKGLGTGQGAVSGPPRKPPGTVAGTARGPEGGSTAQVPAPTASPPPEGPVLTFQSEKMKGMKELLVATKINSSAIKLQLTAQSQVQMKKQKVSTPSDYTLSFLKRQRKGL

Row | IC50 [6] [nM] | IC50 ([2]; Homo sapiens, 168 h) [nM] | IC50 ([4]; Homo sapiens, 168 h) [nM] | AUC(0-t) ([5]; read-out: AUC0-t) [ng·h/mL] | compound-exposure in plasma (in words) [5] | Compound | mRNA transcription inhibition activity (in words) [1] | mRNA at 1 μM (% control) MEIS1 [1, 7] [% control] | IC50 [2] [nM] | mRNA at 1 μM (% control) HOXA9 [3] [% control] | cell proliferation inhibition activity (in words, good) [4] | cell proliferation inhibitory activity (in words, potent) [4] | IC50 [4] [nM] | AUC(0-t) [5] [ng·h/mL] | Menin-MLL binding inhibition activity (in words) [6] | mrna remaining at 1 µM [1, 7] [%] | mrna remaining at 1 µM [3] [%]
1 | 17.8 | 260 | 200 | 1960 | good compound-exposure in plasma | O=C([C@H]1N[C@@H]2CC[C@H]1C2)N1CC2(C1)CN(c1c(C(F)(F)F)cnc3sc(CC(F)(F)F)cc13)C2 [Example 2, [(1R,3S,4S)-2-azabicyclo[2.2.1]heptan-3-yl]{6-[2-(2,2,2-trifluoroethyl)-5-(trifluoromethyl)thieno[2,3-b]pyridin-4-yl]-2,6-diazaspiro[3.3]heptan-2-yl}methanone] | – | – | – | – | – | – | – | – | – | 32 | 34.3
2 | 31.8 | 210 | 200 | 1210 | good compound-exposure in plasma | O=C([C@H]1NC2CCC1CC2)N1CC2(C1)CN(c1c(C(F)(F)F)cnc3sc(CC(F)(F)F)cc13)C2 [Example 3, [(3S)-2-azabicyclo[2.2.2]octan-3-yl]{6-[2-(2,2,2-trifluoroethyl)-5-(trifluoromethyl)thieno[2,3-b]pyridin-4-yl]-2,6-diazaspiro[3.3]heptan-2-yl}methanone] | – | – | – | – | – | – | – | – | – | 18.7 | 32
3 | 31.7 | 280 | 170 | 3750 | good compound-exposure in plasma | O=C([C@H]1N[C@H]2C[C@@H]1[C@@H](F)C2)N1CC2(C1)CN(c1c(C(F)(F)F)cnc3sc(CC(F)(F)F)cc13)C2 [Example 9, [(1S,3S,4S,5S)-5-fluoro-2-azabicyclo[2.2.1]heptan-3-yl]{6-[2-(2,2,2-trifluoroethyl)-5-(trifluoromethyl)thieno[2,3-b]pyridin-4-yl]-2,6-diazaspiro[3.3]heptan-2-yl}methanone] | – | – | – | – | – | – | – | – | – | 34.2 | 49.4

The next lines start with the compound.

Row | Compound | IC50 [6] [nM] | IC50 ([2]; Homo sapiens, 168 h) [nM] | IC50 ([4]; Homo sapiens, 168 h) [nM] | AUC(0-t) ([5]; read-out: AUC0-t) [ng·h/mL] | compound-exposure in plasma (in words) [5] | mRNA transcription inhibition activity (in words) [1] | mRNA at 1 μM (% control) MEIS1 [1, 7] [% control] | IC50 [2] [nM] | mRNA at 1 μM (% control) HOXA9 [3] [% control] | cell proliferation inhibition activity (in words, good) [4] | cell proliferation inhibitory activity (in words, potent) [4] | IC50 [4] [nM] | AUC(0-t) [5] [ng·h/mL] | Menin-MLL binding inhibition activity (in words) [6] | mrna remaining at 1 µM [1, 7] [%] | mrna remaining at 1 µM [3] [%]
4 | 4-{6-[(1S,3S,4S,5S)-5-fluoro-2-azabicyclo[2.2.2]octane-3-carbonyl]-2,6-diazaspiro[3.3]heptan-2-y}-2-(2,2,2-trifluoroethyl)thieno[2,3-b]pyridine-5-carbonitrile [Example 22] | 6.2 | – | – | – | – | showed the mRNA transcription inhibition activity | 18.1 | 90 | 37.0 | good | potent | 100 | 244 | potent | – | –
5 | O=C([C@H]1N[C@H]2CC[C@@H]1[C@@H](F)C2)N1CC2(C1)CN(c1c(C(F)(F)F)cnc3sc(CC(F)(F)F)cc13)C2 [Example 1, {(1S,3S,4S,5S)-5-Fluoro-2-azabicyclo[2.2.2]octan-3-yl}{6-[2-(2,2,2-trifluoroethyl)-5-(trifluoromethyl)thieno[2,3-b]pyridin-4-yl]-2,6-diazaspiro[3.3]heptan-2-yl}methanone] | 13.3 | 80 | 90 | 2410 | good compound-exposure in plasma | showed the mRNA transcription inhibition activity | – | – | – | good | potent | – | – | potent | 18 | 43.3
6 | N#Cc1cnc2sc(CC(F)(F)F)cc2c1N1CC2(CN(C(=O)[C@H]3N[C@H]4CC[C@@H]3C(F)(F)C4)C2)C1 [Example 23, 4-{6-[(1S,3S,4S)-5,5-difluoro-2-azabicyclo[2.2.2]octane-3-carbonyl]-2,6-diazaspiro[3.3]heptan-2-yl}-2-(2,2,2-trifluoroethyl)thieno[2,3-b]pyridine-5-carbonitrile] | 11 | 290 | 280 | 668 | – | – | – | – | – | – | – | – | – | – | 45.4 | 49.3
